From ChEMBL document CHEMBL2086247, “Protein-ligand crystal structures can guide the design of selective inhibitors of the FGFR tyrosine kinase” (J Med Chem, 2012)

Experiments:
[1] = target: T1, Insulin-like growth factor 1 receptor (Homo sapiens, UniProt P08069); assay: Inhibition of recombinant N terminal His6-tagged human IGF1R (959 to end) expressed in baculovirus infected Sf21 cells after 80 mins by caliper mobility shift assay
[2] = target: T2, Vascular endothelial growth factor receptor 2 (Homo sapiens, UniProt P35968); assay: Inhibition of recombinant N terminal GST-tagged human KDR (805 to 1356) expressed in baculovirus infected Sf9 cells after 90 mins by caliper mobility shift assay
[3] = target: T3, Fibroblast growth factor receptor 1 (Homo sapiens, UniProt P11362); assay: biochemical
Description: Inhibition of recombinant N terminal GST-tagged human FGFR1 (456 to 765) expressed in baculovirus infected Sf21 cells after 40 mins by caliper mobility shift assay

[4] = target: T2, Vascular endothelial growth factor receptor 2; assay: Inhibition of human KDR phosphorylation expressed in VEGF-stimulated HUVEC treated 90 mins before VEGF stimulation measured after 5 mins by ELISA; format: cell-based
[5] = target: T3, Fibroblast growth factor receptor 1
Description: Inhibition of human FGFR1 phosphorylation expressed in COS1 cells after 1 hr by immunoblotting

[6] = target: T1, Insulin-like growth factor 1 receptor; assay: Inhibition of human IGF1R phosphorylation expressed in IGF-1-stimulated knockout mouse R+ cells treated 30 mins before IGF-1 stimulation measured after 20 mins by immunofluorescence
[7] = target: Dual specificity mitogen-activated protein kinase kinase 1 (Homo sapiens, UniProt Q02750); assay: Inhibition of MEK1 fused with GST by autoradiography
Sequence of Dual specificity mitogen-activated protein kinase kinase 1 (Q02750 whole entry, the tested form may be a part): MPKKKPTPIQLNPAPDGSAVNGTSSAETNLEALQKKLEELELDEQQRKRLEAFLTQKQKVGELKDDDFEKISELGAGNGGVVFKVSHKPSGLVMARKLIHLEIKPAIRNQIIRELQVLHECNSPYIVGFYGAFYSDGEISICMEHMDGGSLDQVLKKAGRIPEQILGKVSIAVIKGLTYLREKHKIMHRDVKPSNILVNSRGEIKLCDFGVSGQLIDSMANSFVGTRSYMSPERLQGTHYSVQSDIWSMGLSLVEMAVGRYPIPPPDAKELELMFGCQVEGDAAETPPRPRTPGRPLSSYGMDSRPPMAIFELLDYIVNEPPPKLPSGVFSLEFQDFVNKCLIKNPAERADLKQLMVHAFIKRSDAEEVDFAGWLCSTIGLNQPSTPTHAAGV

T2 sequence (P35968 whole entry): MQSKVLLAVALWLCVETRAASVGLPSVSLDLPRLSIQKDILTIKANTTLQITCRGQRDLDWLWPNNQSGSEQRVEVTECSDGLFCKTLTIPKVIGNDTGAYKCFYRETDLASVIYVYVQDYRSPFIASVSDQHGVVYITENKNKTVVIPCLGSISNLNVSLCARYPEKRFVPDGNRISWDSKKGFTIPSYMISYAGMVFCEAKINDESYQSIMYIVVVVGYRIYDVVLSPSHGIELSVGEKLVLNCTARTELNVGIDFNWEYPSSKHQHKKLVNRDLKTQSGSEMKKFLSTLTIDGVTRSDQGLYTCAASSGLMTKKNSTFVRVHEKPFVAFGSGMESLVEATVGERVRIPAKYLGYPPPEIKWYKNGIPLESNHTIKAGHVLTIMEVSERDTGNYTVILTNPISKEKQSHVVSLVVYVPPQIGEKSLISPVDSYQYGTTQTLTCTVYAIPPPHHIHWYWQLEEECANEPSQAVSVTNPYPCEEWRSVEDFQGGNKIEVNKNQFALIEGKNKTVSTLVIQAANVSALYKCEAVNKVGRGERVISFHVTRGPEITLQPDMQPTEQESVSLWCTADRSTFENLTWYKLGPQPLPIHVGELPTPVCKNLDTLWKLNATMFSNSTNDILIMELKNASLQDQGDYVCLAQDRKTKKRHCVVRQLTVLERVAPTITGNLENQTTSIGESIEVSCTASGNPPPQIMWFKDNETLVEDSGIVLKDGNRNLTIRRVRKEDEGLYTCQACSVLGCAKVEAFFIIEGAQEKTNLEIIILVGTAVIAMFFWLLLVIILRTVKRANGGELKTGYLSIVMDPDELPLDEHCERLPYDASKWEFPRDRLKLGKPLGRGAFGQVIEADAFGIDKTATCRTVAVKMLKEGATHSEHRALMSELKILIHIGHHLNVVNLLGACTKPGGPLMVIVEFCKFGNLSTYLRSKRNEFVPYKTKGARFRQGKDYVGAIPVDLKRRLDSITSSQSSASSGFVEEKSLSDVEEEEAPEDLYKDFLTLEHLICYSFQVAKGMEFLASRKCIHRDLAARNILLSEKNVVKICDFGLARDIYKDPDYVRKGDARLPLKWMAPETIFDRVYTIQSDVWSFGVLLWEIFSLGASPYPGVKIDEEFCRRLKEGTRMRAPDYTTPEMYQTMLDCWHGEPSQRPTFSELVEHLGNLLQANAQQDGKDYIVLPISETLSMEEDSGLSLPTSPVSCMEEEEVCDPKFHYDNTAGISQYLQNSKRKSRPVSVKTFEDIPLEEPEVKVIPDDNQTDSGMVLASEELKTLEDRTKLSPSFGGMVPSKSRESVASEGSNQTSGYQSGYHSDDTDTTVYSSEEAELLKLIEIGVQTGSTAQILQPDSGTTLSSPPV
T3 sequence (P11362 whole entry): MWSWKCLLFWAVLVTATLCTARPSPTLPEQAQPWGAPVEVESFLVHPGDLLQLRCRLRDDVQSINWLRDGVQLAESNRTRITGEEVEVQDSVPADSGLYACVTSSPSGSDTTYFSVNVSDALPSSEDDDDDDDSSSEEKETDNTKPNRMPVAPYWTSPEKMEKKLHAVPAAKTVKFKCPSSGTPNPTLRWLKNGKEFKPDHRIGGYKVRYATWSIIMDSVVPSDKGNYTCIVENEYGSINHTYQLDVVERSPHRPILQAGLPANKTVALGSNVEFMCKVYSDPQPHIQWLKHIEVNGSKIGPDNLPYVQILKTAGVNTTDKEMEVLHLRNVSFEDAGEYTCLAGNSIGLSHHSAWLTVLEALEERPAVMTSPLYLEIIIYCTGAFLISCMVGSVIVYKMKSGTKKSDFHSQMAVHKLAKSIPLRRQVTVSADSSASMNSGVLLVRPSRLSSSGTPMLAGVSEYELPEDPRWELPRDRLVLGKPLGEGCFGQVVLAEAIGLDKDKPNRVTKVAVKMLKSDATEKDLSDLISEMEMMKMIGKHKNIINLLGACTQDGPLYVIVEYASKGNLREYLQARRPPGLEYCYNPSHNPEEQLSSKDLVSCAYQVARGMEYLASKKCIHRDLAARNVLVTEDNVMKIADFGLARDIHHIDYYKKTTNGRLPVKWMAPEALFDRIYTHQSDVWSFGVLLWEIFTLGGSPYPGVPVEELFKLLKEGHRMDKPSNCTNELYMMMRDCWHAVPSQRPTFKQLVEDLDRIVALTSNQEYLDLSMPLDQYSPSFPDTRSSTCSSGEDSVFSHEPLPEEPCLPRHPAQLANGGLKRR

IC50 [1] [nM]	IC50 [2] [nM]	IC50 [3] [nM]	IC50 [4] [nM]	IC50 [5] [nM]	IC50 [6] [nM]	IC50 [7] [nM]	Structure (SMILES)
7940	1260	100	–	–	–	–	Cc1cc(Nc2ccnc(NCc3cc(C(N)=O)no3)n2)[nH]n1
12600	126	2	–	–	–	–	COc1cc(CCc2cc(Nc3ccnc(NCc4cc(C)on4)n3)n[nH]2)cc(OC)c1
10000	15800	–	–	–	–	–	Cc1cc(Nc2nc(NCc3cc(C(=O)N4CCCC4)no3)ncc2Br)n[nH]1
7940	501	–	–	–	–	–	Cc1cc(CNc2ncc(Cl)c(Nc3cc(C)[nH]n3)n2)on1
79400	398	5.01	–	–	–	–	COc1cc(CCc2cc(Nc3ccnc(NCc4ccccn4)n3)[nH]n2)cc(OC)c1
10000	3980	31.6	> 10000	158	3160	–	Cc1cc(Nc2nc(NCc3cc(C(C)(C)C)no3)ncc2Br)[nH]n1
6310	79.4	2	1580	< 15.8	5010	–	COc1cc(CCc2cc(Nc3ccnc(NCc4cc(C)no4)n3)n[nH]2)cc(OC)c1
7940	631	63.1	6310	158	6310	–	Cc1cc(Nc2nc(NCc3cc(C)no3)ncc2Br)[nH]n1
398	158	10	6310	100	501	–	CCCc1cc(Nc2nc(NCc3cc(C)no3)ncc2Br)n[nH]1
39800	20000	–	–	–	–	–	Cc1cc(CNc2nccc(Nc3cc(CO)[nH]n3)n2)on1
10000	794	25.1	–	–	–	–	Cc1cc(Nc2ccnc(NCc3cc(C4CC4)no3)n2)n[nH]1
12600	1000	–	–	–	–	–	Cc1cc(CNc2nccc(Nc3cc(C)[nH]n3)n2)on1
6310	25.1	2.51	1580	63.1	10000	–	Cc1cc(CNc2ncc(Br)c(Nc3cc(CCc4ccccc4)[nH]n3)n2)on1
20000	1260	63.1	> 10000	794	> 20000	–	COCCCc1cc(Nc2nc(NCc3cc(C)no3)ncc2Br)[nH]n1
100000	1260	–	–	–	–	–	COCCCc1cc(Nc2ccnc(NCc3cc(C(N)=O)no3)n2)[nH]n1
12600	1580	–	–	–	–	–	COCCCc1cc(Nc2ccnc(NCc3cc(C4CC4)no3)n2)n[nH]1

The next lines start with the molecule.

Structure (SMILES)	IC50 [1] [nM]	IC50 [2] [nM]	IC50 [3] [nM]	IC50 [4] [nM]	IC50 [5] [nM]	IC50 [6] [nM]	IC50 [7] [nM]
CCCc1cc(Nc2nc(NCc3cccnc3)ncc2Br)n[nH]1	1580	126	–	–	–	–	–
CCc1cc(Nc2nc(NCc3cc(-c4ccccn4)no3)ncc2Br)n[nH]1	100	3160	–	–	–	–	–
Cc1cc(CNc2nccc(Nc3cc(CCc4ccccc4)[nH]n3)n2)on1	–	126	–	–	–	–	–
Cc1cc(CCNc2ncc(Br)c(Nc3cc(C)[nH]n3)n2)on1	15800	501	398	–	–	–	–
Cc1cc(Nc2nc(NCc3ncccc3C)ncc2Br)n[nH]1	50100	501	–	–	–	–	–
CCN(CC)CCCCNc1ncc2cc(-c3cc(OC)cc(OC)c3)c(NC(=O)NC(C)(C)C)nc2n1 [PD-173074]	–	–	–	–	–	–	> 50000
CC(C)c1cc(Nc2nc(NCc3cccnc3)ncc2Br)n[nH]1	398	398	–	–	–	–	–
Cc1cc(Nc2nc(NCCc3ccco3)ncc2Br)n[nH]1	3980	200	200	–	–	–	–
CCc1cc(Nc2nc(NCc3ccccn3)ncc2Br)n[nH]1	3160	501	39.8	–	–	–	–
COCCCc1cc(Nc2ccnc(NCc3cc(C)no3)n2)n[nH]1	–	2510	–	–	–	–	–
Cc1cc(Nc2nc(NCc3ccccn3)ncc2Br)n[nH]1	12600	1580	200	–	–	–	–
C=CCNc1ncc(Br)c(Nc2cc(C)[nH]n2)n1	3980	1000	–	794	–	6310	–
Cc1cc(Nc2nc(NCCCc3c[nH]nc3C)ncc2Br)n[nH]1	6310	501	126	–	–	–	–
Cc1cnc(CNc2ncc(Br)c(Nc3cc(C)[nH]n3)n2)cn1	12600	1000	100	–	–	–	–
Cc1cc(Nc2nc(NCCc3cccnc3)ncc2Br)[nH]n1	6310	631	501	> 10000	2510	3980	–
